Among the data in patent US20260337211A1, “IP5 SUBSTITUTED COMPOUNDS” (SANIFIT THERAPEUTICS, S.A., priority 2022, published 2026) are EC50 values, retold here.

Where a name gives a salt, the structure may show the parent alone. Bounds are passed on as bounds.

One experiment can be described thus: In vitro inhibition of calcium phosphate crystallization in human plasma (spectrophotometric, 550 nm). Format: biochemical. Particulars: 0-100 μM compound, 1.5 mM phosphate and 12.5 mM calcium, pH 7.4, 30 min at rt, slope between 6 and 24 min, 30 min, read-out: Relative Potency (EC50). The protocol: The in vitro efficacy of the IP5 substituted compounds (e.g., Compounds 1 to 32) of the invention on the inhibition of calcium phosphate crystallization in human plasma samples was evaluated according to a spectrophotometric assay previously described in the art (Ferrer M, et al., Sci Rep 2017; 7:6858, doi:10.1038/s41598-017-07203-x).
A 96-well plate was employed. Plasma was spiked (1 volume of the IP5 substituted compounds of the invention per 19 volumes of plasma) with increasing concentrations of the derivatives in the range of 0-100 μM. Plasma was then centrifuged at 10,000 g at rt and subsequently mixed with a mixture of 5 mM hydrogen phosphate and 41.67 mM calcium to attain final concentrations of 1.5 mM phosphate and 12.5 mM calcium, respectively. All reagent solutions were filtered, and pH adjusted to 7.4.
Crystallization of calcium phosphate was monitored spectrophotometrically for 30 min at rt by measuring the increments in absorbance at 550 nm using the Biotek Powerwave XS Microplate spectrophotometer (BioTek Instruments, Inc., Winooski, VT, US). The plate was incubated at rt in an orbital shaker and absorbance measured every 3 min.
Plasma crystallization was assessed based on slope measurement in the linear range between 6 and 24 min from plots of increase in absorbance versus logarithm of time. The efficacy of different myo-inositol phosphates derivatives in preventing in vitro formation of calcium phosphate crystals was assessed in human plasma samples using the slopes obtained between 6- and 24-min. Inhibition of crystallization was measured by comparing the slopes of the control sample (blank plasma) with those of samples containing the inhibitor as shown below: […]
A word on the EC50: it is the concentration needed to bring the measured effect to its halfway point. With `O=P(O)(O)OC1C(OCCCCCC(F)(F)F)C(OP(=O)(O)O)C(OP(=O)(O)O)C(OP(=O)(O)O)C1OP(=O)(O)O` (stereo not shown) [Compound 36, 2-O-(6,6,6-Trifluorohexyl)-myo-inositol-1,3,4,5,6-pentakis(phosphate) decasodium salt], the concentration giving a half-maximal response (EC50) was no more than 5 µM.

Still in this experiment, the particulars now being: 0-100 μM compound, 1.5 mM phosphate and 12.5 mM calcium, pH 7.4, 30 min at rt, slope between 6 and 24 min, read-out: Relative Potency (EC50).
In the case of “rac-1-O-Propyl-myo-inositol-2,3,4,5,6-pentakis(phosphate) decasodium salt [Compound 32]”, the concentration giving a half-maximal response (EC50) was no more than 5 µM.

Regarding `CCCOC1C(OP(=O)(O)O)C(OP(=O)(O)O)C(OP(=O)(O)O)C(OP(=O)(O)O)C1OP(=O)(O)O` (stereo not shown) [Compound 34, 2-O-Propyl-myo-inositol-1,3,4,5,6-pentakis(phosphate) decasodium salt], the concentration giving a half-maximal response (EC50) lay within 5 to 10 µM.

As to “rac-4-O-Pentyl-myo-inositol-1,2,3,5,6-pentakis(phosphate) decasodium salt [Compound 1]”, the EC50 was no more than 5 µM.

Take “2-O-(5-Acetamidopentyl)-myo-inositol-1,3,4,5,6-pentakis(phosphate) decasodium salt [Compound 35]”: the concentration for a half-maximal effect (EC50) was greater than 10 µM.

Turning to `O=P(O)(O)OC1C(OCCC2CCCC2)C(OP(=O)(O)O)C(OP(=O)(O)O)C(OP(=O)(O)O)C1OP(=O)(O)O` (racemic) [Compound 16, rac-4-O-(2-Cyclopentylethyl)-myo-inositol-1,2,3,5,6-pentakis(phosphate) decasodium salt], the 50% effective concentration (EC50) was no more than 5 µM.

On to “rac-4-O-(6,6,6-Trifluorohexyl)-myo-inositol-1,2,3,5,6-pentakis(phosphate) decasodium salt [Compound 13]”, for which the concentration for a half-maximal effect (EC50) was no more than 5 µM.

For “5-O-(9-Methoxypentyl)-myo-inositol-1,2,3,4,6-pentakis(phosphate) decasodium salt [Compound 44]”, the EC50 was in the range of 5 to 10 µM.

Take “2-O-((1-(2-Carboxyethyl)-1H-1,2,3-triazol-4-yl)methyl)-myo-inositol-1,3,4,5,6-pentakis(phosphate) undecasodium salt [Compound 42]”: the 50% effective concentration (EC50) lay within 5 to 10 µM.

For `COCCCCCCCCCO[C@H]1[C@@H](OP(=O)(O)O)[C@H](OP(=O)(O)O)[C@@H](OP(=O)(O)O)[C@H](OP(=O)(O)O)[C@H]1OP(=O)(O)O` [Compound 8, 2-O-(9-Methoxynonyl)-myo-inositol-1,3,4,5,6-pentakis(phosphate) decasodium salt], the 50% effective concentration (EC50) was 5 to 10 µM.

As for “2-O-(5-(4-(Methoxymethyl)-1H-1,2,3-triazol-1-yl)pentyl)-myo-inositol-1,3,4,5,6-pentakis(phosphate) decasodium [Compound 41]”, the EC50 was greater than 10 µM.

On to `COc1ccc(CCCOC2C(OP(=O)(O)O)C(OP(=O)(O)O)C(OP(=O)(O)O)C(OP(=O)(O)O)C2OP(=O)(O)O)cc1` (racemic) [Compound 14, rac-4-O-(3-(4-Methoxyphenyl)propyl)-myo-inositol-1,2,3,5,6-pentakis(phosphate) decasodium salt], for which the 50% effective concentration (EC50) was no more than 5 µM.

With `O=P(O)(O)OC1C(OCCC2CCCC2)C(OP(=O)(O)O)C(OP(=O)(O)O)C(OP(=O)(O)O)C1OP(=O)(O)O` (racemic) [Compound 51, rac-1-O-(2-Cyclopentylethyl)-myo-inositol-2,3,4,5,6-pentakis(phosphate) decasodium salt], the EC50 is no more than 5 µM.

“rac-4-O-(5-Hydroxypentyl)-myo-inositol-1,2,3,5,6-pentakis(phosphate) decasodium salt [Compound 2]”: the EC50 is no more than 5 µM.

For “rac-4-O-Methyl-myo-inositol-1,2,3,5,6-pentakis(phosphate) decasodium salt [Compound 22]”, the EC50 fell in the range of 5 to 10 µM.

As for “5-O-(2-Cyclopropylethyl)-myo-inositol-1,2,3,4,6-pentakis(phosphate) decasodium salt [Compound 30]”, the concentration giving a half-maximal response (EC50) fell in the range of 5 to 10 µM.
